These results are taken from publication PMC6984391, “Anion carriers as potential treatments for cystic fibrosis: transport in cystic fibrosis cells, and additivity to channel-targeting drugs” (Chemical Science, 2019).

Structures are written as SMILES.

A short description of experiment [1]: Affinity to Cl- by 1H NMR titration with Bu4N+Cl- in DMSO-d6/H2O (200:1). It is filed as binding. To be noted: 1H NMR titration with Bu4N^+Cl^– in DMSO-d6/H2O (200 : 1) at 298 K; new compound. As for the experimental part:
The binding constant to chloride was assessed using 1H NMR titrations with n-Bu4N+Cl- in DMSO-d6/H2O (200:1). The hygroscopic guest n-Bu4N+Cl- and the host compounds were dried under high vacuum to remove residual solvents or water prior to solution preparation. The concentration of the host was around 1 mM in all titrations; the concentration of guest and the volumes of the aliquots of guest solution added to the host solution were varied o ver the experiments. The guest solutions contained the same concentrations of host as the starting host solution (i.e., n-Bu4N+Cl- was dissolved in a solution of ~1 mM host in DMSO-d6/H2O (200:1)), […]
NMR titration binding studies were performed using a Varian 500b NMR spectrometer at 298
K. The shift of both NH signals in DMSO were fitted to 1:1 binding model using a least -squares fitting procedure in a custom -made Excel spreadsheet .
Figure S6. Downfield region of the 1H NMR spectra from the titration of tetrabutylammonium chloride into 12 […]
(1 picture or pasted object on this page, not shown here)

Another experiment deals with YFP-FRT cells. As to the kind of experiment: Persistence of anion transport by fluorescence microscopy in YFP-FRT cells. It is filed as cell-based, Fischer rat. To be noted: 10 μM, continuous perfusion. As for the experimental part: the PBS bathing cells 10 minutes prior to PBS iodide addition, whereas UTP was added to cells with the PBS iodide solution. Fluorescence was measured for 14 seconds; 2 seconds before and 12 seconds after injection of 110 µl PBS iodide solution (137 mM Cl- replaced by I-) into each well (to obtain a final concentration of I- of 100 mM).
We expressed cell fluorescence values (F) relative to the fluorescence value immediately before I- injection (F0), excluding the initial decrease, which likely represents the quenching of extracellular YFP released from cells and signal reduction accompanying the increase in solution volume bathing cells. To quantify anion transport by test anionophores, we determined the initial slope of the fluorescence decay following I - addition by fitting first order exponential functions to the last 12 seconds of each fluorescence recording. […]
fluorescence microscopy as described previously.10 In brief, YFP-FRT cells were washed 3x with PBS before transfer to a perfusion chamber mounted on the stage of a Leica DM IRB microscope. […] Any anionophore not incorporated into YFP-FRT cell membranes was removed from the chamber by perfusion with PBS when fluorescence measurements commenced. […]
Fluorescence data from 5 – 9 cells per coverslip were analysed with 4 coverslips tested for each anionophore. […]

On the set-up of experiment [2]: method as in ref [20], [23] (Reference column). The conditions noted are these: extraction of Et4N^+Cl^– from water into chloroform at 303 K; ref [20], [23]; cited from earlier work.
On the set-up of experiment [3]: method as in ref [20], [21], [23], [24], [29] (Reference column). The conditions noted are these: transporter preincorporated in LUVs (70% POPC + 30% cholesterol), 25 mM NaCl gradient, 225 mM NaNO3; ref [20], [21], [23], [24], [29]; cited from earlier work.

As to `CCOC(=O)[C@]12CC[C@@H](NC(=S)Nc3ccc([N+](=O)[O-])cc3)C[C@@H]1C[C@@H](NC(=S)Nc1ccc([N+](=O)[O-])cc1)CC2` [Compound 12], the “K a to Cl^– in DMSO” value in experiment [1] is given as 1.7 × 10^3 M^–1. For the same compound, the “duration of anion transport after anionophore delivery” value in the experiment on YFP-FRT cells is “up to 2 h”.

`CCOC(=O)[C@]12CC[C@@H](NC(=S)Nc3cc(C(F)(F)F)cc(C(F)(F)F)c3)C[C@@H]1C[C@@H](NC(=S)Nc1cc(C(F)(F)F)cc(C(F)(F)F)c1)CC2` [Compound 15]: in experiment [2], the “K a to Cl^– in CHCl3” value was 4.7 × 10^8 M^–1. For the same compound, in experiment [3], the “Specific initial rate [I]” value was 2600 s^–1.
